We go through eight compounds from patent publication US6812239B2, “Method of identification of inhibitors of PDE1C and methods of treatment of diabetes” (Albert Einstein College of Medicine of Yeshiva University, priority 1999, dated 2004).

The subject of one test is βTC3 cells. The experiment in a line: Insulin release from βTC3 cells by radioimmunoassay. Conditions: 16.7 mM glucose; for Effect on glucose induced insulin secretion (in words): 2 hr incubation; for Insulin secretion, % of the cellular insulin content / Insulin secretion, % of the insulin content of the cells: 2 hr. The format is cell-based, Mus musculus. The procedure:
The cultured cells are starved for glucose in Hepes buffered Krebs-Ringer solution for 1 hr. Subsequently, 16.7 mM glucose and the potential phosphodiesterase inhibitors are added to the cells in Hepes buffered Krebs-Ringer solution and the cells are incubated for 2 additional hr. Each condition is assayed in triplicate. Insulin content of the supernatant after centrifugation, and of the cells after acid extraction, is determined by a radioimmunoassay. Control samples are treated with no potential inhibitor compound or, for control or calibration purposes, with compounds that will inhibit other PDE isozymes but that are known to lack PDE1C inhibitory activity or, for examining glucose-independent effects of potential inhibitor compound alone.
Cell Culture, treatments and measurements of insulin secretion. βTC3 cells were cultured as described and early passages were maintained (D'Ambra, R., Surana, M., Efrat, S., Starr, R. G., and Fleischer, N. (1990) Endocrinology 126, 2815-2822). For measurements of insulin secretion cells were plated onto a 12-well culture dishes 3-4 days, and refed 16 hr, prior to the assay. On the experiment day, cells were washed in Hepes-buffered Krebs-Ringer solution, and incubated in this glucose-free solution for 1 hr. Subsequently, 16.7 mM glucose and, when relevant, PDE inhibitors were added to the cells in Hepes-buffered Krebs-Ringer solution and the cells were incubated for 2 additional hr. Each condition was assayed in triplicates. Insulin content of the supernatant after centrifugation, and of the cells after acid extraction, was determined by a radioimmunoassay as described (D'Ambra, R., Surana, M., Efrat, S., Starr, R. G., and Fleischer, N. (1990) Endocrinology 126, 2815-2822).
Cyclic nucleotide phosphodiesterase inhibitors that augment insulin secretion were identified using used βTC3 insulinoma cells. For measurements of insulin secretion cells were plated onto a 12-well culture dishes 3-4 days, and refed 16 hr, prior to the assay. On the experiment day, cells were washed in Hepes-buffered Krebs-Ringer solution, and incubated in this glucose-free solution for 1 hour. Subsequently, 16.7 mM glucose and, when relevant, phosphodiesterase inhibitors were added to the cells in Hepes-buffered Krebs-Ringer solution and the cells were incubated for 2 additional hours. Each condition was assayed in triplicates. Insulin content of the supernatant after centrifugation, and of the cells after acid extraction, was determined by a radioimmunoassay.

The target in another test is PDE1C of βTC3 cells (Mus musculus, UniProt Q64338). The experiment in a line: cAMP PDE activity of mono-Q FPLC peak I (PDE1C) of βTC3 cells. The format is biochemical. The following applies: for IC50: 1 μM cAMP substrate, average ± standard deviation, read-out: IC50 values Peak I PDE1. The procedure:
(§1) Mono-Q-FPLC fractionation of PDE activities. Cells were scraped and homogenized in a buffer containing 50 mM Tris 7.5, 250 mM sucrose, 5 mM MgCl2, 0.2 μg/ml aprotinin, leupeptin and pepstatin, and 1 mM 4-(2-aminoethyl)benzenesulfonyl fluoride. Following a 30 min 150,000 g centrifugation, the supernatant was loaded onto a Pharmacia Mono-Q anion exchange column and PDE activities were fractionated by FPLC along a two step salt gradient. Column buffers were (A) 50 mM Tris 7.5 and (B) 50 mM Tris 7.5, 0.5 M NaCl. The gradient consisted of a 10 min increase to 0.2 M NaCl (20% B), and a 90 min increase to 0.5 M NaCl (100% B). One ml fractions were collected.
(§2) PDE assays and kinetic measurements. PDE assays were performed in duplicate as described (40). Analysis and plotting of kinetic data was performed by using the computer program kaleidagraph. The contributions of the high and low affinities cGMP PDEs of peak I to total PDE activity of this peak at a given substrate concentration were calculated using the formula: […]

A further test relates to PDE3. Conditions: Beavo 1988; read-out: IC50 for inhibition of PDE3; cited from earlier work.
Test [1] deals with soluble PDE activities of βTC3 cells. In words: Overall PDE activity in inhibitor-treated βTC3 cells. The format is cell-based. The following applies: Mus musculus. The source says:
An estimate for the ability of the inhibitors to permeate and inhibit PDEs within cells was provided by measurements of overall PDE activity in inhibitor-treated cells. These measurements provide an underestimate of the in vivo effects of the inhibitors due to inhibitor dilution, degradation, and release of inhibitor bound to PDEs, that occur during extraction, and are more pronounced in particulate fractions.

The subject of the next test is Peak III PDE4. The experiment in a line: cAMP PDE activity of mono-Q FPLC peak III of βTC3 cells. Conditions: 2.5 μM rolipram, substrate cAMP 1 μM. The format is biochemical, Mus musculus. Here is the method:
as §1, §2

Test [2] relates to cGMP PDE activities of peak I (PDE1C and cGMP-specific PDE). In words: cGMP PDE activity of mono-Q FPLC peak I of βTC3 cells. The format is biochemical, Mus musculus. Conditions: 50 μM 8 MM-IBMX. Here is the method:
as §1, §2

In another test the test system is PDE1C. Conditions: unlike PDE1A and 1B; cited from earlier work.
The next test concerns involved PDE families. Conditions: cited from earlier work.
The test system of test [3] is glucose induced insulin secretion. Conditions: Parker et al. 1995; cited from earlier work.

Values joined by “and” are separate entries in the source; they are usually repeats but may differ in a detail not shown here. Equal values may be shown once. “Also recorded” adds a separate entry of the source.

The term IC50 denotes the midpoint of a concentration-inhibition curve. Broadly, the inhibition is the change of the read-out against control, counted positive when it falls.

Chain of PDE1C of βTC3 cells (Q64338 151-528 limits assumed): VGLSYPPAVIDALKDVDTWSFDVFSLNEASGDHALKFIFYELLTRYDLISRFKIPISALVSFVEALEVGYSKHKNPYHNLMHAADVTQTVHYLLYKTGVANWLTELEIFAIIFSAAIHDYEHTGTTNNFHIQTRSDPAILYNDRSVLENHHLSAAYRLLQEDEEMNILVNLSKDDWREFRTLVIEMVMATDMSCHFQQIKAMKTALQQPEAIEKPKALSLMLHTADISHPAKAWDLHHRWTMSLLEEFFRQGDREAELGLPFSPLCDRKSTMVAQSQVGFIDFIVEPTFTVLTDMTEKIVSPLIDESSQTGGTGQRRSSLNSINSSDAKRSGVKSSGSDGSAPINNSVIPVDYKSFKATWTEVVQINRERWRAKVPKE

For the compound `COc1cc2c(cc1OC)-c1c/c(=N\c3c(C)cc(C)cc3C)n(C)c(=O)n1CC2` [trequinsin], the “Effect on glucose induced insulin secretion (in words)” value (from here on “Effect”) in the test with βTC3 cells is “no effect; also recorded: did not”. In addition, the “Insulin secretion, % of the cellular insulin content” value with βTC3 cells (inhibitor 30 nM) is reported as 7%.
In the case of `Cc1[nH]c(=O)c(C#N)cc1-c1ccncc1` [Milrinone, 1,6-dihydro-2-methyl-6-oxo-(3,4′-bipyridine)-5-carbonitrile], the “Effect” value in the test on βTC3 cells is listed as “did not affect insulin secretion”. The half-inhibitory concentration (IC50) on PDE1C of βTC3 cells is > 100 µM; in the test with PDE3 it was 0.3 µM.
As to `COc1ccc(C2CNC(=O)C2)cc1OC1CCCC1` (stereo not shown) [Rolipram, 4-[3-(cyclopentyloxy)-4-methoxyphenyl]-2-pyrrolidinone], the “Insulin secretion, % of the insulin content of the cells” value in the test with βTC3 cells (over 10^4 fold increase in concentrations, up to 15 μM) is listed as 7.9-10.7%. The inhibition at 15 µM in [1] (inhibitor applied to cells at 15 μM, read-out: Inhibition of soluble cAMP PDE activities in inhibitor-treated cells) amounted to 37%. The 50% inhibitory concentration (IC50) at PDE1C of βTC3 cells is > 100 µM. For the same compound, the figures for the “Inhibition by Rolipram, peak III” value in the test on Peak III PDE4 and in the test on Peak III PDE4 (listed as rolipram) were 97% and “abolished”, respectively.
On to `COCc1nc2c([nH]1)c(=O)n(C)c(=O)n2CC(C)C` [8 MM-IBMX, 8-methoxymethyl-1-methyl-3-(2-methylpropyl)xanthine], for which the figures for the “Effect” value with βTC3 cells and in the test with βTC3 cells (listed as 8-methoxymethyl-isobutylmethylxanthine) were “strongly augmented insulin secretion; also recorded: dose dependent augmentation of insulin secretion” and “dose dependent augmentation of insulin secretion”, respectively. Also, the “Insulin secretion, % of the cellular insulin content” value with βTC3 cells (inhibitor 0.5 mM) was 17.2%. Further, in the test on βTC3 cells (inhibitor […]), the “Insulin secretion, % of the insulin content of the cells” value was 9.3%. Moreover, in test [1] (inhibitor applied to cells at 0.5 mM, read-out: Inhibition of soluble cGMP PDE activities in inhibitor-treated cells), the inhibition at 500 µM is 30%. Moreover, the IC50 at PDE1C of βTC3 cells is 7.5 µM. This compound also showed an inhibition at 50 µM at PDE1C of βTC3 cells (50 μM 8 MM-IBMX, substrate cAMP 0.5 μM) of 80%. Besides, the “Inhibition by 8 MM-IBMX, peak I” value is listed as 82% in test [2] (substrate cGMP 0.1 μM) and 57% in test [2] (substrate cGMP 10 μM).
As to `CCCCOc1cc(CC2CNC(=O)N2)ccc1OC` (stereo not shown) [RO20-1724, 4-(3-butoxy-4-methoxybenzyl)-2-imidazolidinone], the “Effect” value in the test with βTC3 cells is reported as “limited effect; also recorded: did not”. In addition, the “Insulin secretion, % of the cellular insulin content” value in the test on βTC3 cells (inhibitor 0.2 mM) amounted to 9.6%.
Regarding `CCCOc1ccccc1-c1nc2nn[nH]c2c(=O)[nH]1` [Zaprinast, zaprinast], the “Effect” value in the test with βTC3 cells is “enhanced glucose induced secretion; also recorded: partial stimulatory effects”. For the same compound, in the test with βTC3 cells (inhibitor 0.5 mM), the “Insulin secretion, % of the cellular insulin content” value is recorded as 6.2%. Moreover, on PDE1C of βTC3 cells, the IC50 turned out to be 4.5 µM. The “Sensitivity of PDE1C to inhibitor (in words)” value with PDE1C is given as “sensitive”.
Consider `CC(C)Cn1c(=O)n(C)c(=O)c2[nH]cnc21` [IBMX, 1-methyl-3-isobutylxanthine], for which the “Insulin secretion, % of the cellular insulin content” value in the test with βTC3 cells (inhibitor 0.5 mM) was 8% and 18%; in the test with βTC3 cells (inhibitor 0.5 mM, listed as isobutylmethylxanthine), 15.2%. Also, the “IC50 values for the involved PDE families” value in the test on involved PDE families was “low μM range”.
`CCOC(=O)C1=C[C@]2(CC)CCCN3CCc4c(n1c1ccccc41)[C@@H]32` [Vinpocetine, eburnamenine-14-carboxylic acid ethyl ester]: the IC50 on PDE1C of βTC3 cells is > 100 µM. Further, the “Sensitivity of PDE1C to inhibitor (in words)” value in the test on PDE1C is “resistant”. Besides, the “Stimulation of glucose induced insulin secretion (in words)” value in [3] was “ineffective simulator of glucose induced insulin secretion”.
